From PubChem BioAssay AID1963959 (Molecular Pharmacology Branch, DTP, NCI, 2024)

Test system: T-47D spheroids with HUVEC/MSC, viability
Experiment: Anticancer human tumor T-47D cell line growth inhibition [PI3K];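 further: spheroids exposed to agents for seven days before reading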;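 on viability, T/C: percent of DMSO vehicle control luminescence so 100% = untreated growth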
Conditions: for IC50: curve of first compound; for viability, T/C: stronger effect = lower value
From the text: Combinatorial screen of targeted agents with the PI3K inhibitors inavolisib, alpelisib, duvelisib, and copanlisib in multi-cell type tumor spheroids
A high-throughput screen of multi-cell type tumor spheroids was designed to identify active combinations of targeted small molecules and PI3K pathway inhibitors. Complex spheroids include a stromal component modeled by human endothelial cells (HUVEC) and fibroblasts modeled by human mesenchymal stem cells (MSCs). The concentration ranges selected for each drug and investigational agent were based upon clinically achievable concentrations if the clinical Cmax of the agent was known.
Compounds. The drugs and investigational agents: inavolisib (NSC800729), alpelisib (NSC765974), duvelisib (NSC772469), copanlisib (NSC816437), ipatasertib (NSC767898), afuresertib (NSC778305), talazoparib (NSC767125), sapanisertib (NSC764658), selumetinib (NSC741078), tovorafenib (DAY101, NSC766906), vemurafenib (NSC761431), ravoxertinib (NSC781343), sotorasib (NSC818433), MRTX1133 (NSC 836407), abemaciclib (NSC 768073), palbociclib (NSC758247), venetoclax (NSC 766270), SY5609 (NSC837396), enzalutamide (NSC755605), and darolutamide (NSC825331), were obtained from the National Cancer Institute (NCI) Developmental Therapeutics Program Chemical Repository. The FDA-approved anticancer drug set is available from the NCI Developmental Therapeutics Program. […] The stock solutions were prepared in dimethyl sulfoxide (DMSO, Sigma-Aldrich, St. Louis, MO, cat. D2650) at 800-fold the tested concentration and stored at -70 degrees C prior to their use. All drugs and investigational agents were tested over a range starting from a high concentration at or near the clinical Cmax and decreasing in half-log increments. If the clinical Cmax for an agent had not been determined, the highest concentration tested was 10 microM.
Cell Culture. All cells were maintained in an incubator at 37 degrees C and 5% CO2 with 95% humidity. The PDC lines were cultured according to standard operating procedures established by the NCI PDMR (https://pdmr.cancer.gov/sops/default.htm). All PDCs were thawed and cultured in Matrigel-coated flasks prepared with a working solution of 1X Ham's F-12 nutrient mix, without supplementation (Invitrogen, Waltham, MA, cat. 11765054), 100 U/mL penicillin-streptomycin (Invitrogen, cat. 15140122), and 2.5% Matrigel (Corning Inc., Corning, NY, cat. 354248) for the first three passages. The 354836-022-R-J1-PDC, 475296-252-R-J1-PDC, and 997726-040-R-J2-PDC lines were cultured in 6A media, which includes advanced DMEM/F-12 (Thermo Fisher Scientific, cat. 12634028), 10 mM HEPES (Thermo Fisher Scientific, cat. 15630080), 1X GlutaMAX supplement (Thermo Fisher Scientific, cat. 35050061), 0.1 mg/mL primocin (InvivoGen, San Diego, CA, cat. ant-pm-2), 10% defined fetal bovine serum, heat inactivated (HyClone Laboratories Inc., Logan, UT, cat. SH30070.03HI), 50% L-WRN conditioned media (ATCC, cat. CRL-3276), 1.25 mM N-Acetyl-L-cysteine (Sigma-Aldrich, cat. A9165), 10 mM nicotinamide (Sigma-Aldrich, cat. N0636), 1X B-27 supplement (Thermo Fisher Scientific, cat. 17504044), 1X N-2 supplement (Thermo Fisher Scientific, cat. 17502048), and 10 microM Y-27632 dihydrochloride (Tocris Bioscience, Bristol, United Kingdom, cat. 1254). The 624824-186-R-J2-PDC line was cultured in 6C/Colon 1B media, which includes all 6A media components plus 50 ng/mL human EGF recombinant protein (Thermo Fisher Scientific, cat. PHG0311). […]

CNC(=O)c1ccc(N2C(=S)N(c3ccc(C#N)c(C(F)(F)F)c3)C(=O)C2(C)C)cc1F + CC(Nc1ccc2c(c1)OCCn1cc(N3C(=O)OCC3C(F)F)nc1-2)C(N)=O
IC50 (second compound 0.00316 µM): > 10 µM
IC50 (second compound 0.01 µM): > 10 µM
IC50 (second compound 0.0316 µM): > 10 µM
IC50 (second compound 0.1 µM): > 10 µM
IC50 (second compound 0.316 µM): > 10 µM
IC50 (second compound 1 µM): > 10 µM
viability, T/C (second compound 0.00316 µM, first compound 0.0316 µM): 120%
viability, T/C (second compound 0.00316 µM, first compound 0.1 µM): 98.2%
viability, T/C (second compound 0.00316 µM, first compound 0.316 µM): 104%
viability, T/C (second compound 0.00316 µM, first compound 1 µM): 81.5%
viability, T/C (second compound 0.00316 µM, first compound 3.16 µM): 104%
viability, T/C (second compound 0.00316 µM, first compound 10 µM): 88.3%
viability, T/C (second compound 0.01 µM, first compound 0.0316 µM): 105%
viability, T/C (second compound 0.01 µM, first compound 0.1 µM): 91.5%
viability, T/C (second compound 0.01 µM, first compound 0.316 µM): 88.2%
viability, T/C (second compound 0.01 µM, first compound 1 µM): 82.3%
viability, T/C (second compound 0.01 µM, first compound 3.16 µM): 91.2%
viability, T/C (second compound 0.01 µM, first compound 10 µM): 95.5%
viability, T/C (second compound 0.0316 µM, first compound 0.0316 µM): 103%
viability, T/C (second compound 0.0316 µM, first compound 0.1 µM): 95%
viability, T/C (second compound 0.0316 µM, first compound 0.316 µM): 87.1%
viability, T/C (second compound 0.0316 µM, first compound 1 µM): 77.2%
viability, T/C (second compound 0.0316 µM, first compound 3.16 µM): 91.2%
viability, T/C (second compound 0.0316 µM, first compound 10 µM): 90.9%
viability, T/C (second compound 0.1 µM, first compound 0.0316 µM): 94.7%
viability, T/C (second compound 0.1 µM, first compound 0.1 µM): 82.2%
viability, T/C (second compound 0.1 µM, first compound 0.316 µM): 99.7%
viability, T/C (second compound 0.1 µM, first compound 1 µM): 86.7%
viability, T/C (second compound 0.1 µM, first compound 3.16 µM): 90.2%
viability, T/C (second compound 0.1 µM, first compound 10 µM): 72.5%
viability, T/C (second compound 0.316 µM, first compound 0.0316 µM): 71.9%
viability, T/C (second compound 0.316 µM, first compound 0.1 µM): 79%
viability, T/C (second compound 0.316 µM, first compound 0.316 µM): 75.2%
viability, T/C (second compound 0.316 µM, first compound 1 µM): 71%
viability, T/C (second compound 0.316 µM, first compound 3.16 µM): 64.3%
viability, T/C (second compound 0.316 µM, first compound 10 µM): 60.6%
viability, T/C (second compound 1 µM, first compound 0.0316 µM): 61%
viability, T/C (second compound 1 µM, first compound 0.1 µM): 68%
viability, T/C (second compound 1 µM, first compound 0.316 µM): 58.8%
viability, T/C (second compound 1 µM, first compound 1 µM): 60.4%
viability, T/C (second compound 1 µM, first compound 3.16 µM): 56.2%
viability, T/C (second compound 1 µM, first compound 10 µM): 48.8%
